Data reported in patent US8614327B2 (Vertex Pharmaceuticals Incorporated, priority 2004, dated 2013).
pEC50: −log10 of the molar value. Values belong to the molecule of their own block, whether it stands above or below them.

Target: T1, ΔF508-CFTR (Homo sapiens, UniProt P13569, DEL508-508)
T1 construct: expressed in transfected cells
Experiment: Membrane potential optical (FRET/VIPR) assay, identification of potentiator compounds
Assay type: cell-based
Details: Table 3, assay not given; for % Activity: relative efficacy
Procedure, shortened: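 NIH3T3 mouse fibroblasts stably expressing ΔF508-CFTR, temperature-corrected 24 h at 27° C., read on VIPR by FRET between CC2-DMPE and DiSBAC2(3). Potentiators identified in a double-addition format, first adding chloride-free (gluconate) medium with or without compound.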

T1 sequence (P13569 with tags, fused parts or gaps DEL508-508): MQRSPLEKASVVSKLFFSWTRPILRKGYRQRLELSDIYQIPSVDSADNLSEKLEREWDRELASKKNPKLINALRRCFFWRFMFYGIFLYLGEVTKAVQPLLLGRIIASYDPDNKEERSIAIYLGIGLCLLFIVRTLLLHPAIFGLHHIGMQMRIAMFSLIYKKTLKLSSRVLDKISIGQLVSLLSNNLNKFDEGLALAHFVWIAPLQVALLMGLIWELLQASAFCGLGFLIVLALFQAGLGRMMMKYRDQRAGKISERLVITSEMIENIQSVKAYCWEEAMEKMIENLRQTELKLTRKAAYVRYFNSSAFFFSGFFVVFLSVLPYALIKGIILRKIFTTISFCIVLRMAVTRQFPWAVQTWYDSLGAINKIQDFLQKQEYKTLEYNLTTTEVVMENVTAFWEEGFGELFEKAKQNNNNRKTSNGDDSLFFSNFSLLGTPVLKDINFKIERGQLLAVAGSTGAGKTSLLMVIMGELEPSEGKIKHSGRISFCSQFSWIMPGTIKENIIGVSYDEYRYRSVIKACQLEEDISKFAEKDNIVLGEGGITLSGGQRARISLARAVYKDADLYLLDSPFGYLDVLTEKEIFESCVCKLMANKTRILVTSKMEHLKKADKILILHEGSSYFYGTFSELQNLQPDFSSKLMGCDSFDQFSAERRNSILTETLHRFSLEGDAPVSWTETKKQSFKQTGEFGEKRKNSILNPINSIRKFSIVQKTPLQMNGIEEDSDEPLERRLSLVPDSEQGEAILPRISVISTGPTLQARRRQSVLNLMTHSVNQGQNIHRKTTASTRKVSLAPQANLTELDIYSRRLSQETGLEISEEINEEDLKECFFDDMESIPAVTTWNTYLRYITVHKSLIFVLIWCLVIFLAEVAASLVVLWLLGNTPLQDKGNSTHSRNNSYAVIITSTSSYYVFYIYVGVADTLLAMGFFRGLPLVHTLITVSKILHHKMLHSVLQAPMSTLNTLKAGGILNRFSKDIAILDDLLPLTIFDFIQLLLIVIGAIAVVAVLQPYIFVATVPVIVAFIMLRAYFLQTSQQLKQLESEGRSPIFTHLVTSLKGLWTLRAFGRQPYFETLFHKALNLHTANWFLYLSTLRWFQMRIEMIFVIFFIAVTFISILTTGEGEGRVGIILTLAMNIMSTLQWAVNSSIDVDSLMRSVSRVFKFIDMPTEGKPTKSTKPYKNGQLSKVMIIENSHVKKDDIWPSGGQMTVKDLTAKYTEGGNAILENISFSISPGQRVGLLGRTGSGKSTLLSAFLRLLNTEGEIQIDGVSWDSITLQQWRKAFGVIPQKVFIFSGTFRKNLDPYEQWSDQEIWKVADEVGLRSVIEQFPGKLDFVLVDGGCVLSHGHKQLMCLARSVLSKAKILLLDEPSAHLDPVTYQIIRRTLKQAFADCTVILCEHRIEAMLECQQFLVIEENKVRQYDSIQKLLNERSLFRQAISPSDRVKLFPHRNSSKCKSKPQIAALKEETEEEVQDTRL

Structure (SMILES): COc1cc(NC(=O)c2c[nH]c3cccc(O)c3c2=O)cc(C(F)(F)F)c1 [Compound 502, 5-hydroxy-N-[3-methoxy-5-(trifluoromethyl)phenyl]-4-oxo-1H-quinoline-3-carboxamide]
pEC50: > 5.00
% Activity: ++ (between 25% to 100%)

Structure (SMILES): Cc1ccc2[nH]cc(C(=O)Nc3ccc(N4CCCC4C)cc3C(F)(F)F)c(=O)c2c1 (stereo not shown) [Compound 503, 6-methyl-N-[4-(2-methylpyrrolidin-1-yl)-2-(trifluoromethyl)phenyl]-4-oxo-1H-quinoline-3-carboxamide]
pEC50: > 5.00
% Activity: ++ (between 25% to 100%)

Structure (SMILES): COc1ccc2[nH]cc(C(=O)Nc3ccc(N4CCC(C)(C)C4)cc3C(F)(F)F)c(=O)c2c1 [Compound 504, N-[4-(3,3-dimethylpyrrolidin-1-yl)-2-(trifluoromethyl)phenyl]-6-methoxy-4-oxo-1H-quinoline-3-carboxamide]
pEC50: > 5.00
% Activity: ++ (between 25% to 100%)

Structure (SMILES): CC(C)(C)c1ccc(NC(=O)c2c[nH]c3ccccc3c2=O)cc1N1CCCCC1 [Compound 510, 4-oxo-N-[3-(1-piperidyl)-4-tert-butyl-phenyl]-1H-quinoline-3-carboxamide]
pEC50: > 5.00
% Activity: ++ (between 25% to 100%)

Structure (SMILES): Cc1cccc2[nH]cc(C(=O)Nc3ccc(N4CCC[C@@H]4C)cc3C(F)(F)F)c(=O)c12 [Compound 511, (S)-5-methyl-N-(4-(2-methylpyrrolidin-1-yl)-2-(trifluoromethyl)phenyl)-4-oxo-1,4-dihydroquinoline-3-carboxamide]
pEC50: > 5.00
% Activity: ++ (between 25% to 100%)

Structure (SMILES): O=C(Nc1cc(O)c(C2CCCC2)cc1C#CCO)c1c[nH]c2ccccc2c1=O [Compound 512, N-[4-cyclopentyl-5-hydroxy-2-(3-hydroxyprop-1-ynyl)phenyl]-4-oxo-1H-quinoline-3-carboxamide]
pEC50: > 5.00
% Activity: ++ (between 25% to 100%)

Structure (SMILES): CN(C)[C@H]1CCN(c2ccc(NC(=O)c3c[nH]c4ccccc4c3=O)c(C(F)(F)F)c2)C1 [Compound 513, (S)-N-(4-(3-(dimethylamino)pyrrolidin-1-yl)-2-(trifluoromethyl)phenyl)-4-oxo-1,4-dihydroquinoline-3-carboxamide]
pEC50: > 5.00
% Activity: ++ (between 25% to 100%)

Structure (SMILES): O=C(Nc1ccc(C(F)(F)F)cc1N1CCCCC1)c1c[nH]c2ccccc2c1=O [Compound 514, 4-oxo-N-[2-(1-piperidyl)-4-(trifluoromethyl)phenyl]-1H-quinoline-3-carboxamide]
pEC50: > 5.00
% Activity: ++ (between 25% to 100%)

Structure (SMILES): Cc1cccc2[nH]cc(C(=O)Nc3ccc(N4[C@@H](C)CC[C@@H]4C)cc3C(F)(F)F)c(=O)c12 [Compound 516, N-(4-((2S,5S)-2,5-dimethylpyrrolidin-1-yl)-2-(trifluoromethyl)phenyl)-5-methyl-4-oxo-1,4-dihydroquinoline-3-carboxamide]
pEC50: > 5.00
% Activity: ++ (between 25% to 100%)

Structure (SMILES): CCOc1cccc2c(=O)c(C(=O)Nc3ccc(C(C)C)cc3C(F)(F)F)c[nH]c12 [Compound 517, 8-ethoxy-N-[4-isopropyl-2-(trifluoromethyl)phenyl]-4-oxo-1H-quinoline-3-carboxamide]
pEC50: > 5.00
% Activity: + (<25%)

Structure (SMILES): CC1(c2ccc(NC(=O)c3c[nH]c4ccc(F)cc4c3=O)cc2)COC1 [Compound 521, 6-fluoro-N-[4-(3-methyloxetan-3-yl)phenyl]-4-oxo-1H-quinoline-3-carboxamide]
pEC50: > 5.00
% Activity: ++ (between 25% to 100%)

Structure (SMILES): O=C(Nc1ccc(C2CCCCC2)c(O)c1)c1c[nH]c2cccc(O)c2c1=O [Compound 522, N-(4-cyclohexyl-3-hydroxy-phenyl)-5-hydroxy-4-oxo-1H-quinoline-3-carboxamide]
pEC50: > 5.00
% Activity: ++ (between 25% to 100%)

Structure (SMILES): CC1(c2ccc(NC(=O)c3c[nH]c4ccccc4c3=O)cc2)COC1 [Compound 523, N-[4-(3-methyloxetan-3-yl)phenyl]-4-oxo-1H-quinoline-3-carboxamide]
pEC50: > 5.00
% Activity: ++ (between 25% to 100%)

Structure (SMILES): CC(C)(C)c1ccc(NC(=O)c2c[nH]c3ccc(F)cc3c2=O)cc1F [Compound 527, 6-fluoro-N-(3-fluoro-4-tert-butyl-phenyl)-4-oxo-1H-quinoline-3-carboxamide]
pEC50: > 5.00
% Activity: ++ (between 25% to 100%)

Structure (SMILES): Cc1cccc2[nH]cc(C(=O)Nc3ccc(N4CCC(F)(F)C4)cc3C(F)(F)F)c(=O)c12 [Compound 528, N-[4-(3,3-difluoropyrrolidin-1-yl)-2-(trifluoromethyl)phenyl]-5-methyl-4-oxo-1H-quinoline-3-carboxamide]
pEC50: > 5.00
% Activity: ++ (between 25% to 100%)

Structure (SMILES): CC1(c2ccc(NC(=O)c3c[nH]c4cccc(O)c4c3=O)cc2)COC1 [Compound 529, 5-hydroxy-N-[4-(3-methyloxetan-3-yl)phenyl]-4-oxo-1H-quinoline-3-carboxamide]
pEC50: > 5.00
% Activity: ++ (between 25% to 100%)

Structure (SMILES): COC(=O)[C@@H]1[C@@H](C)CCN1c1ccc(NC(=O)c2c[nH]c3ccccc3c2=O)c(C(F)(F)F)c1 [Compound 530, (2S,3S)-methyl 3-methyl-1-(4-(4-oxo-1,4-dihydroquinoline-3-carboxamido)-3-(trifluoromethyl)phenyl)pyrrolidine-2-carboxylate]
pEC50: > 5.00
% Activity: ++ (between 25% to 100%)

Other lines, results leading:

pEC50: > 5.00
% Activity: ++ (between 25% to 100%)
Structure (SMILES): O=C(Nc1cc(O)c(C(F)(F)F)cc1F)c1c[nH]c2ccccc2c1=O [Compound 501, N-[2-fluoro-5-hydroxy-4-(trifluoromethyl)phenyl]-4-oxo-1H-quinoline-3-carboxamide]

pEC50: > 5.00
% Activity: + (<25%)
Structure (SMILES): CC(C)(C)c1cc(C(C)(C)C)c(NC(=O)c2c[nH]c3c(C#N)cccc3c2=O)cc1O [Compound 505, 8-cyano-N-(5-hydroxy-2,4-ditert-butyl-phenyl)-4-oxo-1H-quinoline-3-carboxamide]

pEC50: > 5.00
% Activity: ++ (between 25% to 100%)
Structure (SMILES): O=C(Nc1ccc(C(F)(F)F)c(O)c1)c1c[nH]c2ccccc2c1=O [Compound 506, N-[3-hydroxy-4-(trifluoromethyl)phenyl]-4-oxo-1H-quinoline-3-carboxamide]

pEC50: > 5.00
% Activity: ++ (between 25% to 100%)
Structure (SMILES): CCc1cc(C(C)(C)C)c(O)cc1NC(=O)c1c[nH]c2cccc(O)c2c1=O [Compound 507, N-(2-ethyl-5-hydroxy-4-tert-butyl-phenyl)-5-hydroxy-4-oxo-1H-quinoline-3-carboxamide]

% Activity: ++ (between 25% to 100%)
Structure (SMILES): CC(C)(C)c1c[nH]c2cc(NC(=O)c3c[nH]c4ccccc4c3=O)c(C(F)(F)F)cc12 [Compound 508, 4-oxo-N-[3-tert-butyl-5-(trifluoromethyl)-1H-indol-6-yl]-1H-quinoline-3-carboxamide]

pEC50: > 5.00
% Activity: ++ (between 25% to 100%)
Structure (SMILES): CC(C)(C)c1cc(C(F)(F)F)c(NC(=O)c2c[nH]c3ccc(F)cc3c2=O)cc1O [Compound 509, 6-fluoro-N-[5-hydroxy-4-tert-butyl-2-(trifluoromethyl)phenyl]-4-oxo-1H-quinoline-3-carboxamide]

% Activity: + (<25%)
Structure (SMILES): CC(C)(C)c1cc(C(C)(C)C)c(NC(=O)c2c[nH]c3ccc(C(F)(F)F)cc3c2=O)cc1O [Compound 515, N-(5-hydroxy-2,4-ditert-butyl-phenyl)-4-oxo-6-(trifluoromethyl)-1H-quinoline-3-carboxamide]

pEC50: > 5.00
% Activity: ++ (between 25% to 100%)
Structure (SMILES): Cc1cc(C(C)(C)C)c(O)cc1NC(=O)c1c[nH]c2ccccc2c1=O [Compound 518, N-(5-hydroxy-2-methyl-4-tert-butyl-phenyl)-4-oxo-1H-quinoline-3-carboxamide]

pEC50: > 5.00
% Activity: ++ (between 25% to 100%)
Structure (SMILES): CC(C)(C)c1cc(F)c(NC(=O)c2c[nH]c3c(C#N)cccc3c2=O)cc1O [Compound 519, 8-cyano-N-(2-fluoro-5-hydroxy-4-tert-butyl-phenyl)-4-oxo-1H-quinoline-3-carboxamide]

pEC50: > 5.00
% Activity: ++ (between 25% to 100%)
Structure (SMILES): CC(C)(C)c1cc(C(C)(C)C)c(NC(=O)c2c[nH]c3cccc(C(F)(F)F)c3c2=O)cc1O [Compound 520, N-(5-hydroxy-2,4-ditert-butyl-phenyl)-4-oxo-5-(trifluoromethyl)-1H-quinoline-3-carboxamide]

pEC50: > 5.00
% Activity: ++ (between 25% to 100%)
Structure (SMILES): CCOc1ccc2[nH]cc(C(=O)Nc3cc(O)c(C(C)(C)C)cc3C(C)(C)C)c(=O)c2c1 [Compound 524, 6-ethoxy-N-(5-hydroxy-2,4-ditert-butyl-phenyl)-4-oxo-1H-quinoline-3-carboxamide]

pEC50: > 5.00
% Activity: + (<25%)
Structure (SMILES): CC(C)(C)c1cc(C(C)(C)C)c(NC(=O)c2c[nH]c3ccc(C#N)cc3c2=O)cc1O [Compound 525, 6-cyano-N-(5-hydroxy-2,4-ditert-butyl-phenyl)-4-oxo-1H-quinoline-3-carboxamide]

pEC50: 4.60 to 5.00
% Activity: + (<25%)
Structure (SMILES): CCOc1cccc2c(=O)c(C(=O)Nc3cc(O)c(C(C)(C)C)cc3F)c[nH]c12 [Compound 526, 8-ethoxy-N-(2-fluoro-5-hydroxy-4-tert-butyl-phenyl)-4-oxo-1H-quinoline-3-carboxamide]
